Reference: publication PMC10077475, “DG9-conjugated morpholino rescues phenotype in SMA mice by reaching the CNS via a subcutaneous administration” (JCI Insight, 2023)

How the values were obtained:
[1] = tested on: severe SMA mouse model (Taiwanese model); assay: Survival of severe SMA mice after a single subcutaneous injection at PD0; assay type: in vivo; conditions: until humane endpoint
Experimental: To examine whether DG9 peptide can increase the efficacy of PMO, we conjugated it to an 18-mer PMO with a sequence identical to nusinersen. The DG9-PMO, unconjugated PMO, and MOE were injected into SMA model mice [Cg-Tg(SMN2)2HungSmn1^tm1Hung/J; abbreviated as Smn^–/– SMN2^Tg/Tg; commonly called the Taiwanese model]. We also used an arginine-rich peptide (R6G) that is currently being explored in clinical trials for Duchenne muscular dystrophy (DMD) and used in preclinical studies for Hutchinson-Gilford progeria syndrome ([37], [38]). The benchmark control peptide R6G was conjugated to the same PMO sequence used in our study (R6G-PMO). […] We subcutaneously injected mice with the AOs or saline (nontreated, NT) administered at postnatal day 0 (PD0) at 2 doses: 40 mg/kg or 80 mg/kg. In our preliminary experiments, we also tested lower doses of 10 and 20 mg/kg (data not shown). […] The survival was recorded until a humane endpoint was reached. For the 40 mg/kg doses, the median survival was 12 days for unconjugated PMO, 15.5 days for MOE, and 17 days for R6G-PMO, which was increased to 58 days for DG9-PMO treatment (Figure 1A and Supplemental Figure 1A; supplemental material available online with this article; https://doi.org/10.1172/jci.insight.160516DS1). The median survival increased to 57 days for unconjugated PMO, 64 days for MOE, and 121 days for DG9-PMO at the higher dose of 80 mg/kg (Figure 1A). […] In spite of no statistical difference between DG9-PMO and MOE groups, the median survival of DG9-PMO still was higher than MOE, as only 1 mouse was alive until PD200 following a 40 mg/kg injection of MOE.
SMA-transgenic mice [JAX stock 005058 FVB.Cg-Tg(SMN2)2HungSmn1^tm1Hung/J] (Smn^–/–; SMN2^Tg/Tg), also known as Taiwanese mice, were purchased from Jackson Laboratory. Heterozygous mice for Smn1 (Smn1^+/–; SMN2^–/–) generated by us were crossed with mice homozygous for Smn1 Smn^–/–; SMN2^Tg/Tg generated by us to obtain the SMA mice (Smn^–/–; SMN2^Tg/–) or the heterozygous healthy control (Smn1^+/–; SMN2^Tg/–). The SMA mice display a severe overt phenotype similar to patients with SMA type I. The mice were genotyped using a PCR assay on genomic DNA isolated from tail biopsies using the Phire Tissue Direct PCR Kit (Thermo Fisher Scientific) as per the manufacturer’s instructions. The DNA was amplified using the primers described in Supplemental Table 1 using the condition Mouse Smn: 98°C/5 minutes → 98°C/5 s 58°C/10 s 72°C/10 s × 35 cycles → 72°C/1 minute.
Injections were carried out using a 30-gauge Hamilton syringe. SMA mice identified following genotyping were randomly assigned to a treatment group. The researcher injecting mice was blinded to the treatment. SMA neonates were subcutaneously injected with 40 or 80 mg/kg of AOs at PD0, while NT and heterozygous control mice were injected with saline (n = 10–49) per group. Tissues including the quadriceps muscle, liver, kidney, spleen, diaphragm, intercostal muscle, heart, brain, and spinal cord were collected and snap-frozen in dry ice– cooled isopentane, then subsequently stored at –80°C.

[2] = tested on: severe SMA mouse model; assay: Muscle pathology by H&E staining (myofiber size, centrally nucleated fibers); assay type: in vivo
Text: Atrophic musculature is a classical characteristic feature of SMA with diminished skeletal muscle fiber size. To determine the treatment effects on muscle pathology, we assessed the physiology and architecture of the myofibers of 2 affected muscle groups, the quadriceps and intercostal muscles, as well as the sparingly affected diaphragm at PD7 and PD30 ([42], [43]). We quantified the cross-sectional area (CSA), the minimal Feret’s diameter, and centrally nucleated fibers, a hallmark of pathological muscle degeneration/regeneration cycle, for at least 500 myofibers per muscle for each treatment using hematoxylin and eosin (H&E) staining at PD7 and PD30 (Figure 4, A and B, and Supplemental Figures 5 and 6). […] The effect of DG9-PMO persisted at PD30 (Supplemental Figure 6).
Cryosections (7 μm) of the quadriceps muscle, diaphragm, and intercostal muscle were stained with Meyer’s H&E reagents (Electron Microscopy Reagents) ([70]). For the centrally nucleated fibers and myofiber size, 500–800 were randomly selected per muscle per treatment. The CSA and minimal Feret’s diameter were quantified using ImageJ (NIH). All H&E analyses were performed in a blinded fashion.

[3] = single subcutaneous injection at PD0, 40 mg/kg
[4] = single subcutaneous injection at PD0, 80 mg/kg

Q: Which median survival [1, 3] does the source give for “unconjugated PMO: PMO targeting ISS-N1 intron 7 (5′ TCACTTTCATAATGCTGG 3′), purchased from Gene Tools LLC (all phosphorodiamidate morpholino (PMO)) [reference compound]” here?
A: 12 days

Q: And the median survival [1, 4]?
A: 57 days

Q: What about the “myofiber size at PD30 compared with DG9-PMO” value ([2]; 40 mg/kg s.c. at PD0, all 3 tissue types) of the same molecule?
A: significantly smaller myofibers

Q: Which results are given for `CC(=O)N[C@@H](Cc1ccc(O)cc1)C(=O)N[C@@H](C)C(=O)N[C@H](CCCNC(=N)N)C(=O)N[C@H](C(=O)N[C@@H](CCCNC(=N)N)C(=O)N[C@@H](CCCNC(=N)N)C(=O)N[C@H](CCCNC(=N)N)C(=O)NCC(=O)N1CCC[C@H]1C(=O)N[C@@H](CCCNC(=N)N)C(=O)NCC(=O)N[C@@H](Cc1ccc(O)cc1)C(=O)N[C@@H](C)C(=O)N[C@H](CCCNC(=N)N)C(=O)N[C@H](C(=O)N[C@@H](CCCNC(=N)N)C(=O)N[C@@H](CCCNC(=N)N)C(=O)N[C@H](CCCNC(=N)N)C(=O)NCC(=O)N1CCC[C@H]1C(=O)N[C@@H](CCCNC(=N)N)C(=O)N[C@H](CCCNC(=N)N)C(=O)N1C[C@@H](COP(=O)(N(C)C)N2C[C@@H](COP(=O)(N(C)C)N3C[C@@H](COP(=O)(N(C)C)N4C[C@@H](COP(=O)(N(C)C)N5C[C@@H](COP(=O)(N(C)C)N6C[C@@H](COP(=O)(N(C)C)N7C[C@@H](COP(=O)(N(C)C)N8C[C@@H](COP(=O)(N(C)C)N9C[C@@H](COP(=O)(N(C)C)N%10C[C@@H](COP(=O)(N(C)C)N%11C[C@@H](COP(=O)(N(C)C)N%12C[C@@H](COP(=O)(N(C)C)N%13C[C@@H](COP(=O)(N(C)C)N%14C[C@@H](COP(=O)(N(C)C)N%15C[C@@H](COP(=O)(N(C)C)N%16C[C@@H](COP(=O)(N(C)C)N%17C[C@@H](COP(=O)(N(C)C)N%18C[C@@H](COP(=O)(N(C)C)N%19CCC(C(N)=O)CC%19)O[C@@H](n%19cc(C)c(=O)[nH]c%19=O)C%18)O[C@@H](n%18ccc(N)nc%18=O)C%17)O[C@@H](n%17cnc%18c(N)ncnc%18%17)C%16)O[C@@H](n%16ccc(N)nc%16=O)C%15)O[C@@H](n%15cc(C)c(=O)[nH]c%15=O)C%14)O[C@@H](n%14cc(C)c(=O)[nH]c%14=O)C%13)O[C@@H](n%13cc(C)c(=O)[nH]c%13=O)C%12)O[C@@H](n%12ccc(N)nc%12=O)C%11)O[C@@H](n%11cnc%12c(N)ncnc%12%11)C%10)O[C@@H](n%10cc(C)c(=O)[nH]c%10=O)C9)O[C@@H](n9cnc%10c(N)ncnc%109)C8)O[C@@H](n8cnc9c(N)ncnc98)C7)O[C@@H](n7cc(C)c(=O)[nH]c7=O)C6)O[C@@H](n6cnc7c(=O)[nH]c(N)nc76)C5)O[C@@H](n5ccc(N)nc5=O)C4)O[C@@H](n4cc(C)c(=O)[nH]c4=O)C3)O[C@@H](n3cnc4c(=O)[nH]c(N)nc43)C2)O[C@@H](n2cnc3c(=O)[nH]c(N)nc32)C1)C(C)C)C(C)C` (stereo partly shown) [DG9-PMO]?
A: median survival [1, 3]: 58 days; median survival [1, 4]: 121 days; centrally nucleated fibers ([2]; 40 mg/kg s.c. at PD0, PD7): significant decrease in the percentage of centrally nucleated fibers; Feret's diameter and CSA of myofibers at PD7 compared with NT control ([2]; 40 mg/kg s.c. at PD0, quadriceps, diaphragm, intercostal muscle): significantly larger in all 3 muscle groups
